Biological target: T1, HER2 kinase (HER2 intracellular domain) (Homo sapiens, UniProt P04626)
T1 construct: made in house; host or cells: SF-21 insect cells infected with recombinant baculovirus BAC-HER2
Test: Determination of HER2 kinase inhibitory activity
Format: biochemical
Parameters: concentration or dose not given beside the values
Details: compound at 1.0 μL (so in the source), [γ-32P]ATP, poly-Glu:Tyr (4:1) substrate
Method: Human HER2 gene was cloned by RT-PCR using total RNA prepared from MCF7 cells as a template. The primer used for RT-PCR was prepared in consideration of the information of nucleotide sequence (Genbank Accession No. M11730) of HER2 gene by adding a nucleotide sequence encoding DYKDDDD peptide and a restriction enzyme recognition sequence to a nucleotide sequence (corresponding to 2176-3918 of Genbank Accession No. M11730 as a base, 676-1255 amino acids of Genbank Accession No. NP_004439 as a protein) encoding the HER2 intracellular domain region such that the protein contains an N-terminal DYKDDDD peptide tag. The primer nucleotide sequence is shown below.
SF-21 cells were sown at 1×10^6 cells/mL in Sf-900II SFM medium (1 L, Invitrogen) containing 10% fetal bovine serum (trace), 50 mg/L gentamicin (Invitrogen) and 0.1% Pluronic F-68 (Invitrogen), and shaking culture was performed using a 2 L volume Erlenmeyer flask at 27° C., 100 rpm. After culturing for 24 hr, recombinant baculovirus BAC-HER2 (13.4 mL) was added, and the mixture was further cultured for 3 days. The culture medium was centrifuged at 2,000 rpm for 5 min to give virus-infected cells. The infected cells were washed with a phosphate buffered saline (Invitrogen), centrifuged under the same conditions, and the cells were preserved at −80° C. The cryopreserved cells were thawed in ice, suspended in buffer A (50 mM Tris buffer (30 mL, pH 7.4) containing 20% glycerol, 0.15 M NaCl) supplemented with Complete Protease Inhibitor (Boehringer), and ruptured 3 times with a Polytron homogenizer (Kinematica) at 20,000 rpm for 30 sec. The ruptured solution was clarified by centrifugation at 40,000 rpm for 30 min, and filtered with a 0.45 μm filter. The filtrate was passed through a column packed with Anti-FLAG M2 Affinity Gel (4 mL, Sigma-Aldrich) at a flow rate of about 0.5 mL/min. The column was washed with buffer A, and eluted with buffer A containing 100 μg/mL of FLAG peptide. The eluent was concentrated with Vivaspin 20 (Vivascience) having a molecular weight cut off of 30K. The concentrate was purified by gel filtration using Hi Load 16/60 Superdex 200 pg (GE Healthcare Bioscience) equilibrated with buffer A. The fractions containing HER2 intracellular domain were collected and cryopreserved at −80° C.
HER2 kinase reaction was performed using a 96 well plate. As a buffer for kinase reaction, a buffer having a composition of 50 mM Tris-HCl (pH 7.5), 5 mM MnCl2, 2 mM dithiothreitol, 0.01% Tween-20 was used. The compound of the present invention was dissolved in dimethyl sulfoxide (DMSO), and diluted with the kinase reaction buffer so that DMSO concentration would be 0.1% during kinase reaction. This compound solution (10 μL) was mixed with a kinase reaction buffer (20 μL) containing HER2 intracellular domain (0.625 μg/mL) obtained in Experimental Example 1B and polypeptide substrate poly-Glu:Tyr (4:1) (Sigma Ltd., 12.5 μg/mL), and the mixture was stood at room temperature for 5 min. Then, a kinase reaction buffer (20 μL) containing 125 μM ATP and 45 μCi/mL [γ-^32P]ATP was added, and the kinase reaction was initiated with 50 μL of the final reaction mixture. A kinase reaction was performed at room temperature for 10 min, and the kinase reaction was quenched by addition of 20% TCA solution (50 μL). The mixture after completion of the reaction was stood at room temperature for 30 min, and acid insoluble fractions in the mixture after completion of the reaction were collected in a 96 well GF/C filter plate (PerkinElmer) using a cell harvester (PerkinElmer). Thereafter, the filter containing the acid insoluble fractions was washed with 3% phosphoric acid solution. After washing, the filter plate was dried at 45° C. for 60 min, and 25 μL of MicroScinti 0 (PerkinElmer) was added. The radioactivity was measured using TopCount (PerkinElmer). HER2 kinase inhibitory rate (%) of the test compound was calculated by the following formula: […]

T1 sequence (P04626 676-1255): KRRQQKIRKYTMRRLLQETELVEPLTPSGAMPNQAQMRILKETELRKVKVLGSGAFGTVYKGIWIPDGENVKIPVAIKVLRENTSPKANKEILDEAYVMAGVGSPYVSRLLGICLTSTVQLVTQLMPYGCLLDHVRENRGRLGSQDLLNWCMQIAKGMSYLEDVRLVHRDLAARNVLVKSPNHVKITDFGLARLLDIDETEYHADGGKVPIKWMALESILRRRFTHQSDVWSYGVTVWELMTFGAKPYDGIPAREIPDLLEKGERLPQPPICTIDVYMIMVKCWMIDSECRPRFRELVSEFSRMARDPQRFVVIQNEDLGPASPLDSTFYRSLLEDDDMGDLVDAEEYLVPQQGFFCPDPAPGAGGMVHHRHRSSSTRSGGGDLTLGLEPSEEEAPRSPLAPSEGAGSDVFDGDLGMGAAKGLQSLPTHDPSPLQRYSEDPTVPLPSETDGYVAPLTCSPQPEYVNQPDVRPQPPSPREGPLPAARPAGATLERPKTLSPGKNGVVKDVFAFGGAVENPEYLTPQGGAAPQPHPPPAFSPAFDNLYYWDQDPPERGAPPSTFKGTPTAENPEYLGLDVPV

| SMILES | inhibitory rate (%) at 1.0 μL [%] |
| --- | --- |
| Cl.Cn1c(Cl)cc2ncnc(Nc3ccc(Oc4cccc5sncc45)c(Cl)c3)c21 [Example 2, N-[4-(1,2-benzoisothiazol-4-yloxy)-3-chlorophenyl]-6-chloro-5-methyl-5H-pyrrolo[3,2-d]pyrimidin-4-amine hydrochloride] | 100 |
| COc1cc(Nc2ncnc3ccn(CCO)c23)ccc1Oc1cccc2sncc12 [Example 44, 2-(4-{[4-(1,2-benzoisothiazol-4-yloxy)-3-methoxyphenyl]amino}-5H-pyrrolo[3,2-d]pyrimidin-5-yl)ethanol] | 98 |
| OCCn1ccc2ncnc(Nc3ccc(Oc4ccc5cnsc5c4)c(Cl)c3)c21 [Example 20, 2-(4-{[4-(1,2-benzoisothiazol-6-yloxy)-3-chlorophenyl]amino}-5H-pyrrolo[3,2-d]pyrimidin-5-yl)ethanol] | 98 |
| CC(=O)NCCn1ccc2ncnc(Nc3ccc(Oc4cccc5sncc45)c(Cl)c3)c21 [Example 4, N-[2-(4-{[4-(1,2-benzoisothiazol-4-yloxy)-3-chlorophenyl]amino}-5H-pyrrolo[3,2-d]pyrimidin-5-yl)ethyl]acetamide] | 100 |
| Cc1cc(Nc2ncnc3ccn(CCO)c23)ccc1Oc1cccc2sncc12 [Example 31, 2-(4-{[4-(1,2-benzoisothiazol-4-yloxy)-3-methylphenyl]amino}-5H-pyrrolo[3,2-d]pyrimidin-5-yl)ethanol] | 100 |
| CC(C)(CO)C(=O)NCCn1ccc2ncnc(Nc3cc(F)c(Oc4cccc5sncc45)c(Cl)c3)c21 [Example 52, N-[2-(4-{[4-(1,2-benzoisothiazol-4-yloxy)-3-chloro-5-fluorophenyl]amino}-5H-pyrrolo[3,2-d]pyrimidin-5-yl)ethyl]-3-hydroxy-2,2-dimethylpropanamide] | 99 |
| CC(C)(N)C(=O)NCCn1ccc2ncnc(Nc3ccc(Oc4cccc5sncc45)c(Cl)c3)c21 [Example 60, N-[2-(4-{[4-(1,2-benzoisothiazol-4-yloxy)-3-chlorophenyl]amino}-5H-pyrrolo[3,2-d]pyrimidin-5-yl)ethyl]-2-methylalaninamide] | 100 |
| Clc1cc(N2CCn3ccc4ncnc2c43)ccc1Oc1cccc2sncc12 [Example 13, 4-[4-(1,2-benzoisothiazol-4-yloxy)-3-chlorophenyl]-5,6-dihydro-4H-pyrrolo[3,2,1-de]pteridine] | 100 |
